From patent US20170190671A1, “BIS(ARYL)CATECHOL DERIVATIVES AS HERBICIDES” (E I DU PONT DE NEMOURS AND COMPANY, priority 2014, published 2017)

Experiments:
Assay in all cases: Test C preemergence
Assay type in all cases: in vivo
[1] = tested on: blackgrass (Alopecurus myosuroides); details: Alopecurus myosuroides, pre-emergence, 336 h, scale 0 to 100, read-out: Plant response rating, Blackgrass
Summary of the method: (§1)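 Seeded loam-sand soil (preemergence) or young potted plants of 2-18 cm (postemergence) received test chemical formulated with surfactant in a non-phytotoxic solvent. Pots were kept in the greenhouse for 13-15 days before a visual 0-100 control rating relative to controls.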

[2] = tested on: corn (Zea mays); details: Zea mays, pre-emergence, 336 h, scale 0 to 100
Summary of the method: as §1

[3] = tested on: waterhemp (common waterhemp, Amaranthus rudis); details: Amaranthus tuberculatus, pre-emergence, scale 0 to 100, read-out: Plant response rating, Waterhemp
Summary of the method: as §1

[4] = tested on: large (Lg) crabgrass (Digitaria sanguinalis); details: Digitaria sanguinalis, pre-emergence, 336 h, scale 0 to 100, read-out: Plant response rating, Crabgrass, Large
Summary of the method: as §1

[5] = tested on: pigweed (Amaranthus retroflexus); details: Amaranthus retroflexus, pre-emergence, 336 h, scale 0 to 100, read-out: Plant response rating, Pigweed
Summary of the method: as §1

[6] = tested on: lambsquarters (Chenopodium album); details: Chenopodium album, pre-emergence, 336 h, scale 0 to 100, read-out: Plant response rating, Lambsquarters
Summary of the method: as §1

[7] = tested on: yellow nutsedge (Cyperus esculentus); details: Cyperus, pre-emergence, 336 h, scale 0 to 100, read-out: Plant response rating, Nutsedge, Yellow
Summary of the method: as §1

[8] = tested on: giant foxtail (Setaria faberii); details: Setaria faberi, pre-emergence, 336 h, scale 0 to 100, read-out: Plant response rating, Foxtail, Giant
Summary of the method: as §1

[9] = tested on: morningglory (Ipomoea coccinea); details: Ipomoea, pre-emergence, 336 h, scale 0 to 100, read-out: Plant response rating, Morningglory
Summary of the method: as §1

[10] = tested on: ragweed (common ragweed, Ambrosia elatior); details: Ambrosia artemisiifolia, pre-emergence, 336 h, scale 0 to 100, read-out: Plant response rating, Ragweed
Summary of the method: as §1

[11] = tested on: velvetleaf (Abutilon theophrasti); details: Abutilon theophrasti, pre-emergence, scale 0 to 100, read-out: Plant response rating, Velvetleaf
Summary of the method: as §1

[12] = tested on: oilseed rape (Brassica napus); details: Brassica napus, pre-emergence, scale 0 to 100, read-out: Plant response rating, Oilseed Rape
Summary of the method: as §1

[13] = tested on: soybean (Glycine max); details: Glycine max, pre-emergence, scale 0 to 100, read-out: Plant response rating, Soybean
Summary of the method: as §1

[14] = tested on: Italian ryegrass (Lolium multiflorum); details: Lolium multiflorum, pre-emergence, 336 h, scale 0 to 100, read-out: Plant response rating, Ryegrass, Italian
Summary of the method: as §1

[15] = tested on: winter wheat (Triticum aestivum); details: Triticum aestivum, pre-emergence, 336 h, scale 0 to 100, read-out: Plant response rating, Wheat
Summary of the method: as §1

FC(F)c1cccc(Oc2ncc(Cl)cn2)c1Oc1ncc(Cl)cn1 [Compound 46, 2,2′-[[3-(difluoromethyl)-1,2-phenylene]bis(oxy)]bis[5-chloropyrimidine]]
pest or weed control at 31 g/ha ([1]; 31 g ai/ha, preemergence): 70%
pest or weed control at 62 g/ha ([1]; 62 g ai/ha, preemergence): 95%
pest or weed control at 125 g/ha ([1]; 125 g ai/ha, preemergence): 95%
pest or weed control at 16 g/ha ([1]; Preemergence, 16 g ai/ha): 0%
Corn plant response rating (crop injury, 0 = no effect, 100 = complete kill) at 31 g/ha ([2]; 31 g ai/ha, preemergence): 25%
Corn plant response rating (crop injury, 0 = no effect, 100 = complete kill) at 62 g/ha ([2]; 62 g ai/ha, preemergence): 25%
Corn plant response rating (crop injury, 0 = no effect, 100 = complete kill) at 125 g/ha ([2]; 125 g ai/ha, preemergence): 90%
Corn plant response rating (crop injury, 0 = no effect, 100 = complete kill) at 16 g/ha ([2]; Preemergence, 16 g ai/ha): 10%
pest or weed control at 31 g/ha ([3]; 31 g ai/ha, preemergence): 100%
pest or weed control at 62 g/ha ([3]; 62 g ai/ha, preemergence): 100%
pest or weed control at 125 g/ha ([3]; 125 g ai/ha, preemergence): 100%
pest or weed control at 16 g/ha ([3]; Preemergence, 16 g ai/ha): 75%
pest or weed control at 31 g/ha ([4]; 31 g ai/ha, preemergence): 100%
pest or weed control at 62 g/ha ([4]; 62 g ai/ha, preemergence): 100%
pest or weed control at 125 g/ha ([4]; 125 g ai/ha, preemergence): 100%
pest or weed control at 16 g/ha ([4]; Preemergence, 16 g ai/ha): 100%
pest or weed control at 31 g/ha ([5]; 31 g ai/ha, preemergence): 100%
pest or weed control at 62 g/ha ([5]; 62 g ai/ha, preemergence): 100%
pest or weed control at 125 g/ha ([5]; 125 g ai/ha, preemergence): 100%
pest or weed control at 16 g/ha ([5]; Preemergence, 16 g ai/ha): 20%
pest or weed control at 31 g/ha ([6]; 31 g ai/ha, preemergence): 100%
pest or weed control at 62 g/ha ([6]; 62 g ai/ha, preemergence): 100%
pest or weed control at 125 g/ha ([6]; 125 g ai/ha, preemergence): 100%
pest or weed control at 16 g/ha ([6]; Preemergence, 16 g ai/ha): 75%
pest or weed control at 31 g/ha ([7]; 31 g ai/ha, preemergence): 35%
pest or weed control at 62 g/ha ([7]; 62 g ai/ha, preemergence): 55%
pest or weed control at 125 g/ha ([7]; 125 g ai/ha, preemergence): 80%
pest or weed control at 16 g/ha ([7]; Preemergence, 16 g ai/ha): 0%
pest or weed control at 31 g/ha ([8]; 31 g ai/ha, preemergence): 100%
pest or weed control at 62 g/ha ([8]; 62 g ai/ha, preemergence): 100%
pest or weed control at 125 g/ha ([8]; 125 g ai/ha, preemergence): 100%
pest or weed control at 16 g/ha ([8]; Preemergence, 16 g ai/ha): 75%
pest or weed control at 31 g/ha ([9]; 31 g ai/ha, preemergence): 90%
pest or weed control at 62 g/ha ([9]; 62 g ai/ha, preemergence): 80%
pest or weed control at 125 g/ha ([9]; 125 g ai/ha, preemergence): 100%
pest or weed control at 16 g/ha ([9]; Preemergence, 16 g ai/ha): 20%
pest or weed control at 31 g/ha ([10]; 31 g ai/ha, preemergence): 25%
pest or weed control at 62 g/ha ([10]; 62 g ai/ha, preemergence): 35%
pest or weed control at 125 g/ha ([10]; 125 g ai/ha, preemergence): 100%
pest or weed control at 16 g/ha ([10]; Preemergence, 16 g ai/ha): 0%
pest or weed control at 31 g/ha ([11]; 31 g ai/ha, preemergence): 100%
pest or weed control at 62 g/ha ([11]; 62 g ai/ha, preemergence): 95%
pest or weed control at 125 g/ha ([11]; 125 g ai/ha, preemergence): 100%
pest or weed control at 16 g/ha ([11]; Preemergence, 16 g ai/ha): 25%
plant injury at 31 g/ha ([12]; 31 g ai/ha, preemergence): 90%
plant injury at 62 g/ha ([12]; 62 g ai/ha, preemergence): 98%
plant injury at 125 g/ha ([12]; 125 g ai/ha, preemergence): 100%
plant injury at 16 g/ha ([12]; Preemergence, 16 g ai/ha): 65%
plant injury at 31 g/ha ([13]; 31 g ai/ha, preemergence): 40%
plant injury at 62 g/ha ([13]; 62 g ai/ha, preemergence): 65%
plant injury at 125 g/ha ([13]; 125 g ai/ha, preemergence): 95%
plant injury at 16 g/ha ([13]; Preemergence, 16 g ai/ha): 10%
pest or weed control at 31 g/ha ([14]; 31 g ai/ha, preemergence): 25%
pest or weed control at 62 g/ha ([14]; 62 g ai/ha, preemergence): 95%
pest or weed control at 125 g/ha ([14]; 125 g ai/ha, preemergence): 100%
pest or weed control at 16 g/ha ([14]; Preemergence, 16 g ai/ha): 0%
plant injury at 31 g/ha ([15]; 31 g ai/ha, preemergence): 5%
plant injury at 62 g/ha ([15]; 62 g ai/ha, preemergence): 5%
plant injury at 125 g/ha ([15]; 125 g ai/ha, preemergence): 50%
plant injury at 16 g/ha ([15]; Preemergence, 16 g ai/ha): 0%
